In brackets after ≈: the same amount, converted by molar mass.
Experiments:
L. major amastigote = experiment: L. major intracellular amastigote luciferase assay in RAW 264.7 macrophages; assay type: cell-based, Leishmania major; details: Leishmania major, RAW264.7; intracellular amastigotes in RAW 264.7 macrophages, 96 h
Summary of the method: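 Murine RAW 264.7 macrophages were infected overnight with luciferase-expressing L. major metacyclic promastigotes (MOI 1:10). Non-internalized parasites were washed off before 96 h compound exposure (0.5–10,000 ng/mL) at 37°C, 5% CO2.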

[1] = test system: T. b. brucei (strain 427); experiment: T. b. brucei proliferation assay (PrestoBlue, 48 h); assay type: cell-based, Trypanosoma brucei brucei; details: Trypanosoma brucei
Summary of the method: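 T. b. brucei strain 427, 2.5×10^3 per well in HMI-9, exposed to compounds from 50 μM in 1:2 dilutions, in triplicate. Incubated 48 h at 37°C, 5% CO2. PrestoBlue added for 4 h more, fluorescence read at ex 530/em 590 nm.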

[2] = test system: T. cruzi amastigote (Tulahuen strain expressing β-galactosidase); experiment: Intracellular T. cruzi assay in 3T3 cells (beta-galactosidase, 96 h); assay type: cell-based, Trypanosoma cruzi; details: for EC50: Trypanosoma cruzi, TULAHUEN, NIH3T3, 96 h, read-out: T. cruzi amastigote EC50
Summary of the method: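 3T3 cells in phenol-red-free DMEM with 2% FBS were infected with Tulahuen β-galactosidase trypomastigotes, 5×10^4 per well, and exposed to compounds from 50 μM in 1:2 serial dilutions, in triplicate. After 96 h at 37°C, 5% CO2, 500 μM CPRG in PBS with 0.5% NP40 was added for 4 h; absorbance was read at 590–595 nm.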

T. congolense IL3000 = experiment: In vitro drug sensitivity assay for T. congolense (72 h); assay type: cell-based; details: Trypanosoma congolense, IL3000 strain
Method: In vitro drug sensitivity assay for T. congolense (72 h): Compounds were tested in vitro for efficacy against the IL3000 T. congolense (drug sensitive) strain which was originally derived from the Trans Mara I strain, isolated from a bovine in 1966 in Kenya. […] Compounds were assayed in at least three separate, independent experiments and an 11-point dilution curve was used to determine the EC50 values. Bloodstream form trypanosomes were supported in HMI-9 medium containing 20% bovine serum and were incubated with test compounds for 69 h at 34°C in a humidified atmosphere containing 5% CO2. Thereafter, 10 μL of Resazurin dye (12.5 mg in 100 mL of phosphate-buffered saline, Sigma-Aldrich, Buchs, Switzerland) was added for an additional 3 h. Plates were read using a fluorescence plate reader (Spectramax, Gemini XS, Bucher Biotec, Basel, Switzerland) using an excitation wavelength of 536 nm and an emission wavelength of 588 nm.

[3] = test system: T. vivax STIB 719 / ILRAD 560; experiment: Ex vivo drug sensitivity assay for T. vivax (48 h); assay type: cell-based; details: Trypanosoma vivax, STIB719, 48 h
Method: Ex vivo drug sensitivity assay for T. vivax (48 h): Compounds were tested ex vivo against the STIB 719 / ILRAD 560 T. vivax (drug sensitive) strain which originated from the Y486 strain, isolated from a naturally infected bovine in 1976 in Zaria, Nigeria. Compounds were assayed in at least three separate, independent experiments and an 11-point dilution curve was used to determine the EC50 values. Bloodstream form trypanosomes were harvested from a highly parasitaemic mouse (via cardiac puncture) and were incubated with test compounds for 45 h at 37°C in a humidified atmosphere containing 5% CO2, supported in HMI-9 medium containing 20% bovine serum. Thereafter, Resazurin dye was added to monitor trypanosome viability as described in the preceding section.

Aqueous solubility = assay type: physicochemical
[4] = Human plasma protein binding; assay type: in vitro ADME
[5] = Human liver microsome intrinsic clearance; assay type: in vitro ADME; details: liver microsomes
[6] = Rat hepatocyte intrinsic clearance; assay type: in vitro ADME; details: hepatocytes
LogD7.4 = assay type: physicochemical; details: pH 7.4

| SMILES | EC50 (L. major amastigote) | EC50 [1] | EC50 [2] | SI (T. cruzi) ([2]; selectivity index calculated relative to 3T3 cells) | EC50 (T. congolense IL3000) | EC50 [3] | solubility (Aqueous solubility) | fraction unbound ([4]; read-out: Human PPB (converted)) | microsomal CLint [5] | hepatocyte CLint [6] | logD (LogD7.4) | Human PPB [4] |
| --- | --- | --- | --- | --- | --- | --- | --- | --- | --- | --- | --- | --- |
| Fc1cccc(COc2ccc(Nc3ccnc4cc(-c5cn[nH]c5)ccc34)cc2Cl)c1 [Compound 16] | 830 nM | 110 nM | 920 nM | 2.5 | 470 nM | 150 nM | 12 µM (≈ 5.34 µg/mL) | < 0.01 | < 3 µL/min/mg | 17 µL/min/1e6 cells | 4.6 | – |
| COc1ccc(Nc2ccnc3cc(-c4ccc(S(=O)(=O)N5CCN(C)CC5)cc4)ccc23)cc1Cl [Compound 6] | 1400 nM | 220 nM | 3800 nM | – | 860 nM | 160 nM | 100 µM (≈ 52.3 µg/mL) | – | 270 µL/min/mg | 44 µL/min/1e6 cells | < 1 | 99% |
| N=C(N)c1ccc(/N=N/Nc2ccc(C(=N)N)cc2)cc1 [Diminazene, diminazene aceturate, reference compound] | – | 9 nM | – | – | 130 nM | 100 nM | – | – | – | – | – | – |
| CC(C)(C)OC(=O)Nc1ccc2c(Nc3ccc(OCc4cccc(F)c4)c(Cl)c3)ccnc2c1 [Compound 21] | 1100 nM | 150 nM | 600 nM | – | 830 nM | 290 nM | 0.2 µM (≈ 0.0988 µg/mL) | – | 29 µL/min/mg | 48 µL/min/1e6 cells | 4.3 | – |
| CN1CCN(c2nsnc2-c2ccc3c(Nc4ccc(OCc5cccc(F)c5)c(Cl)c4)ccnc3c2)CC1 [Compound 15] | 960 nM | 140 nM | 4700 nM | – | 390 nM | 210 nM | < 0.1 µM | – | 35 µL/min/mg | 35 µL/min/1e6 cells | 4.1 | – |
| CC[n+]1c(-c2ccccc2)c2cc(N/N=N/c3cccc(C(=N)N)c3)ccc2c2ccc(N)cc21 [Isometamidium, isometamidium chloride, reference compound] | – | – | – | – | 6 nM | 0.12 nM | – | – | – | – | – | – |

From paper PMC6283615, “Anilinoquinoline based inhibitors of trypanosomatid proliferation” (PLoS Neglected Tropical Diseases, 2018)
